According to ChEMBL document CHEMBL1141935, “Aminopiperidine indazoles as orally efficacious melanin concentrating hormone receptor-1 antagonists” (Bioorg Med Chem Lett, 2005):

Experiments:
[1] = target: T1, Melanin-concentrating hormone receptor 1 (Homo sapiens, UniProt Q99705); test: Binding affinity to human MCHr1 from neuronal IMR32 cells; format: cell-based, IMR-32
[2] = target: T1, Melanin-concentrating hormone receptor 1; test: Functional antagonism of MCH-mediated calcium release by FLIPR using human MCHr1 from neuronal IMR32 cells; format: cell-based, IMR-32
[3] = AUC in DIO mice brain at 10 mg/kg, po; format: ADME, organism-based; set-up: dose 10 mg/kg, route oral; conditions: mouse
[4] = Half life in DIO mice plasma at 10 mg/kg, po; format: ADME, organism-based; set-up: dose 10 mg/kg, route oral; conditions: mouse
[5] = Half life in DIO mice brain at 10 mg/kg, po; format: ADME, organism-based; set-up: dose 10 mg/kg, route oral; conditions: mouse
[6] = AUC in DIO mice plasma at 10 mg/kg, po; format: ADME, organism-based; set-up: dose 10 mg/kg, route oral; conditions: mouse
[7] = Cmax in DIO mice plasma at 10 mg/kg, po; format: ADME, organism-based; set-up: dose 10 mg/kg, route oral; conditions: mouse
[8] = Cmax in DIO mice brain at 10 mg/kg, po; format: ADME, organism-based; set-up: dose 10 mg/kg, route oral; conditions: mouse

T1 sequence (Q99705 whole entry): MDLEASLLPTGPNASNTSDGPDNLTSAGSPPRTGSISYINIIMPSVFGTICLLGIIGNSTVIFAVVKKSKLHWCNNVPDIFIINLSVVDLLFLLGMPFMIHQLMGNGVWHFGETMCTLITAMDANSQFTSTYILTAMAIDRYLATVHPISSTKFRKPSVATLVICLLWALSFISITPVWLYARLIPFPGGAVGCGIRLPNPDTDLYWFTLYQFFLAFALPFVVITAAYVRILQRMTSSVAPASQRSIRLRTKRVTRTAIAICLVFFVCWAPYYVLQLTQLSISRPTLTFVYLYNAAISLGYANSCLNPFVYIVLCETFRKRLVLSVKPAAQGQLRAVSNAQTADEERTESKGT

SMILES: FC(F)(F)c1ccc2[nH]nc(NC3CCN(Cc4ccc5c(c4)OCO5)CC3)c2c1
- IC50 [1]: > 2000 nM
- IC50 [2]: > 10000 nM

SMILES: Clc1ccc2c(c1)c(NC1CCN(Cc3ccc4c(c3)OCO4)CC1)nn2Cc1cccnc1
- IC50 [1]: 20 nM
- AUC [3]: 5340 ng·h/mL
- half-life [4]: 4.7 h
- IC50 [2]: 290 nM
- half-life [5]: 6 h
- AUC [6]: 11900 ng·h/mL
- Cmax [7]: 1690 ng/mL
- Cmax [8]: 758 ng/mL

SMILES: O=C(c1cccnc1)n1nc(NC2CCN(Cc3ccc4c(c3)OCO4)CC2)c2cc(Cl)ccc21
- IC50 [1]: 20 nM
- half-life [4]: 2.3 h
- IC50 [2]: 930 nM
- AUC [6]: 164 ng·h/mL
- Cmax [7]: 63 ng/mL

SMILES: Clc1ccc2[nH]nc(NC3CCN(Cc4ccccc4)CC3)c2c1
- IC50 [1]: 850 nM
- IC50 [2]: > 10000 nM

SMILES: Clc1ccc2c(c1)c(NC1CCN(Cc3ccc4c(c3)OCO4)CC1)nn2Cc1ccccc1
- IC50 [1]: 40 nM
- IC50 [2]: 5230 nM

SMILES: COc1cccc2[nH]nc(NC3CCN(Cc4ccc5c(c4)OCO5)CC3)c12
- IC50 [1]: 330 nM
- IC50 [2]: > 10000 nM

SMILES: COc1cccc(CN2CCC(Nc3[nH]nc4ccc(Cl)cc34)CC2)c1
- IC50 [1]: 150 nM
- IC50 [2]: 4500 nM

SMILES: Clc1ccc2c(c1)c(NC1CCN(Cc3ccc4c(c3)OCO4)CC1)nn2Cc1ccccn1
- IC50 [1]: 9 nM
- IC50 [2]: 550 nM

SMILES: O=C(CN1CCOCC1)n1nc(NC2CCN(Cc3ccc4c(c3)OCO4)CC2)c2cc(Cl)ccc21
- IC50 [1]: 20 nM
- IC50 [2]: 1140 nM

SMILES: N#Cc1ccc2[nH]nc(NC3CCN(Cc4ccc5c(c4)OCO5)CC3)c2c1
- IC50 [1]: 220 nM
- IC50 [2]: 3400 nM

SMILES: c1ccc2c(NC3CCN(Cc4ccc5c(c4)OCO5)CC3)[nH]nc2c1
- IC50 [1]: 440 nM
- IC50 [2]: > 10000 nM

SMILES: Clc1ccc(CN2CCC(Nc3[nH]nc4ccc(Cl)cc34)CC2)cc1
- IC50 [1]: 200 nM
- IC50 [2]: 6200 nM

SMILES: O=[N+]([O-])c1ccc2[nH]nc(NC3CCN(Cc4ccc5c(c4)OCCO5)CC3)c2c1
- IC50 [1]: 30 nM
- IC50 [2]: 520 nM

SMILES: Cc1ccc(CN2CCC(Nc3[nH]nc4ccc(Cl)cc34)CC2)cc1C
- IC50 [1]: 100 nM
- IC50 [2]: 1380 nM

SMILES: Clc1ccc2[nH]nc(NC3CCN(Cc4ccc5ccccc5c4)CC3)c2c1
- IC50 [1]: 40 nM
- IC50 [2]: 1820 nM

SMILES: Clc1ccc2c(c1)c(NC1CCN(Cc3ccc4c(c3)OCO4)CC1)nn2-c1ccccc1
- IC50 [1]: 50 nM
- IC50 [2]: > 10000 nM

SMILES: O=[N+]([O-])c1ccc2[nH]nc(NC3CCN(Cc4ccc5c(c4)OCO5)CC3)c2c1
- IC50 [1]: 6 nM
- AUC [3]: 22800 ng·h/mL
- half-life [4]: 3.3 h
- IC50 [2]: 70 nM
- half-life [5]: 4 h
- AUC [6]: 14400 ng·h/mL
- Cmax [7]: 1520 ng/mL
- Cmax [8]: 3080 ng/mL

SMILES: COc1ccc(CN2CCC(Nc3[nH]nc4ccc(Cl)cc34)CC2)c(F)c1
- IC50 [1]: 240 nM
- IC50 [2]: 5200 nM

SMILES: Clc1ccc2[nH]nc(NC3CCN(Cc4ccc5c(c4)OCCO5)CC3)c2c1
- IC50 [1]: 70 nM
- IC50 [2]: 1890 nM

SMILES: O=[N+]([O-])c1ccc2c(c1)c(NC1CCN(Cc3ccc4c(c3)OCO4)CC1)nn2Cc1ccccc1
- IC50 [1]: 5 nM
- IC50 [2]: 350 nM

SMILES: COc1ccc2c(c1)c(NC1CCN(Cc3ccc4c(c3)OCO4)CC1)nn2C
- IC50 [1]: 30 nM
- IC50 [2]: 190 nM

SMILES: Clc1ccc2[nH]nc(NC3CCN(Cc4ccc5c(c4)OCO5)CC3)c2c1
- IC50 [1]: 20 nM
- AUC [3]: 59100 ng·h/mL
- half-life [4]: 3.1 h
- IC50 [2]: 260 nM
- half-life [5]: 2.9 h
- AUC [6]: 8760 ng·h/mL
- Cmax [7]: 1880 ng/mL
- Cmax [8]: 12100 ng/mL

SMILES: Clc1ccc2c(c1)c(NC1CCN(Cc3ccc4c(c3)OCO4)CC1)nn2Cc1ccncc1
- IC50 [1]: 7 nM
- IC50 [2]: 560 nM

SMILES: COc1ccc2[nH]nc(NC3CCN(Cc4ccc5c(c4)OCO5)CC3)c2c1
- IC50 [1]: 8 nM
- AUC [3]: 28500 ng·h/mL
- half-life [4]: 3.9 h
- IC50 [2]: 60 nM
- half-life [5]: 4.9 h
- AUC [6]: 7630 ng·h/mL
- Cmax [7]: 1410 ng/mL
- Cmax [8]: 6040 ng/mL

SMILES: Clc1ccc2[nH]nc(NC3CCN(Cc4ccc5nsnc5c4)CC3)c2c1
- IC50 [1]: 50 nM
- IC50 [2]: 4910 nM

SMILES: Cc1ccc2[nH]nc(NC3CCN(Cc4ccc5c(c4)OCO5)CC3)c2c1
- IC50 [1]: 110 nM
- IC50 [2]: 1060 nM

SMILES: COc1ccc2[nH]nc(NC3CCN(Cc4ccc5c[nH]nc5c4)CC3)c2c1
- IC50 [1]: 50 nM
- IC50 [2]: 380 nM

SMILES: O=C(C1CC1)n1nc(NC2CCN(Cc3ccc4c(c3)OCO4)CC2)c2cc(Cl)ccc21
- IC50 [1]: 40 nM
- IC50 [2]: > 10000 nM

SMILES: O=C(c1cscn1)n1nc(NC2CCN(Cc3ccc4c(c3)OCO4)CC2)c2cc(Cl)ccc21
- IC50 [1]: 20 nM
- half-life [4]: 1 h
- IC50 [2]: 2540 nM
- AUC [6]: 400 ng·h/mL
- Cmax [7]: 271 ng/mL

SMILES: Clc1ccc2c(c1)c(NC1CCN(Cc3ccc4ccccc4c3)CC1)nn2Cc1ccccn1
- IC50 [1]: 20 nM
- IC50 [2]: 640 nM
